Laboratory results reported in patent US10696651B2, “Heterocyclic compound” (Takeda Pharmaceutical Company Limited, priority 2016, dated 2020).

What was measured:
[1] = molecular target: T1, human GCN2 full-length protein (Homo sapiens, UniProt Q9P2K8); assay: GCN2 enzyme inhibition assay (LanthaScreen TR-FRET); type: biochemical; details: GCN2 enzyme inhibitory activity at compound concentration of 3 μM; Table 3-1; read-out: inhibitory rate
T1 construct: purchased Carna Biosciences, Inc
Procedure, shortened: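 Full-length human GCN2 was preincubated with compound for 1 hr at room temperature, then reacted for 1 hr with substrate and ATP added from a 570 μM ATP / 390 nM substrate solution (stock concentrations). Phosphorylation was detected by TR-FRET with a terbium-labelled anti-eIF2alpha antibody after 1 hr, with enzyme-free wells as control.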

[2] = system: osteosarcoma cell line U-2-OS; assay: In vitro cell proliferation inhibition assay (CellTiter-Glo, low amino acid media); type: cell-based; details: Homo sapiens, U2OS, 72 h, cell proliferation inhibitory rate, McCoy's 5A low amino acid media, Table 4-1
Procedure, shortened: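 Cells seeded at 1000 per well in McCoy's 5A low amino acid medium (25% amino acid content), then exposed to compound for 72 h at 37° C., 5% CO2. ATP measured by CellTiter-Glo luminescence. Inhibition (%) at 100 nM calculated relative to pre-treatment and untreated control wells.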

[3] = system: ATF4 expression in CCRF-CEM tumor; assay: In vivo ATF4 expression suppression assay (Western blot of CCRF-CEM xenograft tumor) in the presence of L-asparaginase; details: compound 10 mg/kg oral 8 hr before tumor removal, L-asparaginase 1000 U/kg s.c. 32 hr and 8 hr before, CCRF-CEM xenograft in SCID mouse
Description: One million human acute lymphoblastic leukemia cell lines CCRF-CEM obtained from ATCC (American Type Culture Collection) were suspended in Matrigel solution (Corning) and implanted subcutaneously into 6-week-old female SCID mouse (CLEA Japan, Inc.) by injection. The mice in which the tumor engrafted to a size of about 200-1000 mm^3 tumor volume after transplantation were selected and 3 mice per group were used for the experiment. L-asparaginase (Kyowa Hakko Kogyo Co., Ltd.) was subcutaneously administered at a dose of 1000 U/kg 32 hr and 8 hr before tumor removal. A 0.5% methylcellulose suspension of the compound was orally administered at a dose of 10 mg/kg 8 hr before tumor removal. After tumor removal, protein was extracted using Lysing Matrix I tube (MP Biomedicals) containing a protein extract (10% glycerol, 1% sodium dodecyl sulfate, 62.5 mM Tris-HCl [pH 7.5], protease and phosphatase inhibitors [Complete mini and PhosSTOP, Sigma-Aldrich Co. LLC.]) and subjected to Western blot.
Protein extract solution was subjected to protein quantification with BCA Protein Assay Kit (Thermo Scientific), electrophoresed on 7.5-15% SDS-PAGE gel (DRC), and protein in the gel was transferred to PVDF membrane. The membrane was blocked with Starting Block T20 (PBS) Blocking Buffer (Thermo Scientific). […] Thereafter, chemiluminescence was performed using ImmunoStar LD (Wako Pure Chemical Industries, Ltd.), and luminescence intensity was measured by LAS-3000 image analyzer (Fuji Film Co., Ltd.). Furthermore, the expression level of ATF4 was digitized by quantifying the luminescence intensity using Multi Gauge Ver. […]
Based on the ATF4 expression level of the control group orally administered with 0.5% methylcellulose suspension free of Example compound and the treatment group orally administered with Example compound suspension, the ATF4 expression inhibition ratio (%) of the test compound at a compound dose 10 mg/kg was calculated by the following formula and the results thereof are shown in Table 6. […]

[4] = system: human acute lymphoblastic leukemia cells CCRF-CEM; assay: In vivo tumor proliferation inhibitory assay with combined use of asparaginase (CCRF-CEM xenograft); details: CCRF-CEM xenograft in SCID mouse; for in vivo tumor proliferation inhibitory rate (%), GCN2 inhibitor: GCN2 inhibitor alone
Description: One million human acute lymphoblastic leukemia cells CCRF-CEM obtained from ATCC (American Type Culture Collection) were suspended in Matrigel solution (Corning) and implanted subcutaneously into 6-week-old female SCID mouse (CLEA Japan, Inc.) by injection. The mice in which the tumor engrafted to a size of about 200 mm^3 tumor volume after transplantation were selected and 5 mice per group were used for the experiment. A 0.5% methylcellulose suspension of the compound was orally administered twice per day for 9 days. Each compound was administered twice per day and the dose was 10 mg/kg for Example 14 and Example 7, and 6 mg/kg for Example 4. L-asparaginase (Kyowa Hakko Kogyo Co., Ltd.) was subcutaneously administered once per day at a dose of 1000 U/kg. Tumor diameter was measured one day before start of the administration and day 9 of the administration, and the tumor volume was calculated by the formula 1. tumor volume=major axis×minor axis×minor axis×(½) Formula 1
Tumor proliferation inhibitory rate (%) was calculated by the formula 2. tumor proliferation inhibitory rate (%)=(1−(T9−T0)/(C9−C0))×100 Formula 2 T9: average tumor volume of test drug administration group on day 9 of administration, T0: average tumor volume of test drug administration group one day before start of administration, C9: average tumor volume of control group on day 9 of administration, C0: average tumor volume of control group one day before start of administration

T1 sequence (Q9P2K8 whole entry): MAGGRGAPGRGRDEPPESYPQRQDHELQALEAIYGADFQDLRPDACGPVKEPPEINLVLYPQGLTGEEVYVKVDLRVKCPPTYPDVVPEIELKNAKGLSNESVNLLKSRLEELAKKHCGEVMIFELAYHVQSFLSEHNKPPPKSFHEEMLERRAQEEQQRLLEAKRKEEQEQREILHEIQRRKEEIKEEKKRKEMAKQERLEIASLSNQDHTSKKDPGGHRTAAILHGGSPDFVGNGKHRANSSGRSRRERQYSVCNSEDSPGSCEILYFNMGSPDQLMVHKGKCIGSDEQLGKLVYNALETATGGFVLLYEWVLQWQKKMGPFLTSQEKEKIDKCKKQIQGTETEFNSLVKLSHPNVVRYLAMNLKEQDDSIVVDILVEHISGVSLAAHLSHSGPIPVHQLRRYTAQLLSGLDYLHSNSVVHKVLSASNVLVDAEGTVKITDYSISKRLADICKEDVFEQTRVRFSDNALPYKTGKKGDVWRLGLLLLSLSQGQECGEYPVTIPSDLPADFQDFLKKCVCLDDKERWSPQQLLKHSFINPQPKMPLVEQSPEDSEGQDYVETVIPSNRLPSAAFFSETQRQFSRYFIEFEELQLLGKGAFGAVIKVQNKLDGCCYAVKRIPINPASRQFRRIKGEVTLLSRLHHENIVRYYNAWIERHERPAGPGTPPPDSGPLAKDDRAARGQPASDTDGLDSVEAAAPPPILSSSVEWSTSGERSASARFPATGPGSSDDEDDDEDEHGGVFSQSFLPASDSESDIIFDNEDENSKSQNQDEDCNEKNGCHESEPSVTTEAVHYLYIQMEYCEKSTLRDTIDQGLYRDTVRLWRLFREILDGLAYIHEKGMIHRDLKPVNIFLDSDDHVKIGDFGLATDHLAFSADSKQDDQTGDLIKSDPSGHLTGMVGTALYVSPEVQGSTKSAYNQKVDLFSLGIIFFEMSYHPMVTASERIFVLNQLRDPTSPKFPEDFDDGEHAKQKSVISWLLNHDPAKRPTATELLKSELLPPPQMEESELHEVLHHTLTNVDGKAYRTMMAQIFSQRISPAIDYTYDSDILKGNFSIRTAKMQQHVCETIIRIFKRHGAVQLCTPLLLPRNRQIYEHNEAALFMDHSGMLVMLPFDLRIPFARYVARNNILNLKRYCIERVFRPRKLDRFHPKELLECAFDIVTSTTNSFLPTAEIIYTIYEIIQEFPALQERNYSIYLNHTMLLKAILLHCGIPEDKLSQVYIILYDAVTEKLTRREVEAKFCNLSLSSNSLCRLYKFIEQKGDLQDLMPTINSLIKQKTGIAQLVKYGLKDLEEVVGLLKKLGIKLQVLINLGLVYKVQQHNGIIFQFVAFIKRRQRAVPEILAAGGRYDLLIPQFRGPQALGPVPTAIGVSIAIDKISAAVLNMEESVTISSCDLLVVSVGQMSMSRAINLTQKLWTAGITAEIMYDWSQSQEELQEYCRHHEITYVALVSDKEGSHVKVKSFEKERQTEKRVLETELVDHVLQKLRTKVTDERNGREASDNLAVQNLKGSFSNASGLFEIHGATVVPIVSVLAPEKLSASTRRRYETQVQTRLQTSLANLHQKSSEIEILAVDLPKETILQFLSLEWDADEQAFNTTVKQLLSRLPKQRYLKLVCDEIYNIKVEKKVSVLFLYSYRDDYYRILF

| inhibition at 3 µM [1] | SMILES | inhibition at 0.1 µM [2] | in vivo ATF4 expression inhibition ratio (%) [3] | in vivo tumor proliferation inhibitory rate (%), GCN2 inhibitor ([4]; 6 mg/kg oral twice per day for 9 days) | in vivo tumor proliferation inhibitory rate (%), combined use ([4]; compound 6 mg/kg oral twice per day for 9 days combined with L-asparaginase 1000 U/kg s.c. once per day) | in vivo tumor proliferation inhibitory rate (%), GCN2 inhibitor ([4]; 10 mg/kg oral twice per day for 9 days) | in vivo tumor proliferation inhibitory rate (%), combined use ([4]; compound 10 mg/kg oral twice per day for 9 days combined with L-asparaginase 1000 U/kg s.c. once per day) |
| --- | --- | --- | --- | --- | --- | --- | --- |
| 100% | Nc1ncc(C#Cc2c(F)ccc(NS(=O)(=O)c3cc(Cl)cc(CO)c3Cl)c2F)cn1 [Example 4, N-(3-((2-aminopyrimidin-5-yl)ethynyl)-2,4-difluorophenyl)-2,5-dichloro-3-(hydroxymethyl)benzenesulfonamide] | 90% | 76% | 2% | 60% |  |  |
| 100% | COc1ncc(Cl)cc1S(=O)(=O)Nc1ccc(F)c(C#Cc2cnc(N)nc2)c1F [Example 7, N-(3-((2-aminopyrimidin-5-yl)ethynyl)-2,4-difluorophenyl)-5-chloro-2-methoxypyridine-3-sulfonamide] | 96% | 74% |  |  | 7% | 65% |
